Like-named read-outs stand apart in the source and are kept apart here.
Columns and labels:
[1] = versus 5-FU; cited from earlier work
cancer models = settings: versus 5-fluorouracil; cited from earlier work
[2] = Stability of 100 mg/ml NUC-3373 surfactant solution; assay type: physicochemical
Procedure: The successful development of the Diluent Solution to enable preparation of the NUC-1031 aqueous formulation prompted its development for an aqueous formulation of NUC-3373. An aqueous NUC-3373 formulation was developed by adding 6.7 ml of a 250 mg/ml solution of NUC-3373 in 80% DMA:20% 0.9% saline to 10 ml diluent solution to generate a 100 mg/ml NUC-3373 surfactant solution (see Table 4), prior to subsequent dilution into an infusion bag.

[3] = Alternative aqueous infusion solutions of NUC-3373 (osmolarity, stability); assay type: physicochemical
[4] = Solubility of NUC-3373 in a range of pharmaceutically relevant solvents; assay type: physicochemical
Text: The solubility of NUC-3373 (mixture of diastereoisomers) in a range of solvents is shown in […]

Compound: C[C@H](NP(=O)(OC[C@H]1O[C@@H](n2cc(F)c(=O)[nH]c2=O)CC1O)Oc1cccc2ccccc12)C(=O)OCc1ccccc1 (stereo partly drawn) [NUC-3373, 5-fluoro-2′-deoxyuridine-5′-O-[1-naphthyl (benzoxy-L-alaninyl)] phosphate]
- Tolerability [1]: significantly better tolerated than 5-FU
- Activity in vitro (cancer models): outstanding and far superior to the results obtained with 5-fluorouracil
- Assay content ([2]; 0 hours, 5° C.): 105.5 mg/mL
- Purity ([2]; 0 hours, 5° C.): 96.1 % area
- pH ([2]; 0 hours, 5° C.): 7.8
- Assay content ([2]; 0 hours, 20° C.): 104.8 mg/mL
- Purity ([2]; 0 hours, 20° C.): 96.2 % area
- pH ([2]; 0 hours, 20° C.): 7.8
- Assay content ([2]; 8 hours, 5° C.): 102.5 mg/mL
- Purity ([2]; 8 hours, 5° C.): 96.2 % area
- pH ([2]; 8 hours, 5° C.): 7.9
- Assay content ([2]; 8 hours, 20° C.): 100.7 mg/mL
- Purity ([2]; 8 hours, 20° C.): 96.1 % area
- pH ([2]; 8 hours, 20° C.): 7.8
- Assay content ([2]; 24 hours, 5° C.): 103.7 mg/mL
- Purity ([2]; 24 hours, 5° C.): 96.1 % area
- pH ([2]; 24 hours, 5° C.): 7.9
- Assay content ([2]; 24 hours, 20° C.): 99.1 mg/mL
- Purity ([2]; 24 hours, 20° C.): 96.1 % area
- pH ([2]; 24 hours, 20° C.): 7.8
- Assay content ([2]; 48 hours, 5° C.): 102.4 mg/mL
- Purity ([2]; 48 hours, 5° C.): 96.1 % area
- pH ([2]; 48 hours, 5° C.): 7.9
- Assay content ([2]; 48 hours, 20° C.): 99.4 mg/mL
- Purity ([2]; 48 hours, 20° C.): 96.2 % area
- pH ([2]; 48 hours, 20° C.): 7.9
- Stability ([2]; for 48 hours at 5° C. and 20° C.): stable
- Osmolarity ([3]; high dose (3,000 mg) NUC-3373 in 500 ml 0.9% saline infusion bag): 524 mosm/1
- Osmolarity ([3]; high dose NUC-3373 (10 mg/ml) using 0.45% saline): 715 mosm/l H2O
- Osmolarity ([3]; high dose NUC-3373 (10 mg/ml) using WFI): 557 mosm/l H2O
- Osmolarity ([3]; high dose NUC-3373 (10 mg/ml; 3,000 mg) in 250 ml 0.9% saline): 812 mosm/1
- Solubility ([4]; DMA, organic solvent or mixture, read-out: Solubility): 950 mg/mL
- Solubility ([4]; DMSO, organic solvent or mixture, read-out: Solubility): 948 mg/mL
- Solubility ([4]; NMP, organic solvent or mixture, read-out: Solubility): 705 mg/mL
- Solubility ([4]; PEG 400, organic solvent or mixture, read-out: Solubility): 422 mg/mL
- Solubility ([4]; Water): extremely low
- Solubility ([4]; ethanol, organic solvent or mixture, read-out: Solubility): 778 mg/mL
- Solubility ([4]; propylene glycol, organic solvent or mixture, read-out: Solubility): 449 mg/mL
- Solubility ([4]; water, read-out: Solubility): < 2 mg/mL

— US12357652B2, “Formulations of phosphoramidate derivatives of nucleoside drugs” (priority 2015, dated 2025)
